Entries after “also recorded” stand apart in the source; their conditions may differ.
Columns and labels:
[1] = system: MCL-1; assay: Western blot of STAT5 transcriptional target MCL-1 in K562 cells; type: cell-based, human; conditions: 24 h, 15 μM
[2] = system: MYC; assay: Western blot of STAT5 transcriptional target MYC in K562 cells; type: cell-based, human; conditions: 5 h
[3] = system: pSTAT3; assay: Western blot of pSTAT3 in MDA-MB-231 cells; type: cell-based
[4] = system: MV-4;11 (FLT3-ITD) cells; assay: CellTiter-Blue cell viability assay in MV-4; type: cell-based, human
[5] = system: phosphorylated STAT5 (Y694); assay: Western blot of phosphorylated STAT5; type: cell-based, human; conditions: K562 cells, 5 h treatment
[6] = system: healthy human CD34+ umbilical cord cells; assay: Cell viability in healthy human CD34+ umbilical cord cells; type: cell-based
[7] = system: K562 cells; assay: Western blot of apoptosis markers; type: cell-based, human; conditions: 24 h, 15 μM
[8] = system: JAK1/2, ABL, and FLT-3; assay: DiscoveRx KINOMEscan, upstream STAT5 activating kinases; type: binding; conditions: 5 μM

CC(C)(C)c1cc(CN(C(=O)CN(Cc2ccc(Cl)cc2)S(=O)(=O)c2c(F)c(F)c(F)c(F)c2F)c2ccc(C(=O)O)c(O)c2)cc(C(C)(C)C)c1 [13a]
MCL-1 expression [1]: complete knockdown
MYC (c-Myc) expression [2]: dose-dependent decreases; also recorded: Knockdown
pSTAT3 inhibition ([3]; MDA-MB-231, doses corresponding to pSTAT5 inhibition in leukemic cell line): not inhibited
effect on pSTAT3 ([3]; MDA-MB-231 cells, up to 20 μM): no effect
cell viability of MV4-11 cells ([4]; 10 μM): abolished
IC50 ([4]; Homo sapiens, MV4-11, 72 h, read-out: IC50, cell viability MV4;11): 3.5 µM
concentration at which pSTAT5 is ablated [5]: above 10 μM
pSTAT5 (Y694) levels [5]: decreased pSTAT5 in a dose dependent manner
difference in sensitivity CD34+ vs MV4-11 (therapeutic window) [6]: approximate order of magnitude
cell viability of healthy CD34+ cells ([6]; 10 μM): little reduction in cell viability; also recorded: limited effect on cell viability
cell death / apoptosis (cleaved PARP-1, Caspase-3) [7]: undergo cell death; also recorded: Initiation of apoptosis
effect against upstream STAT5 activating kinases JAK1/2, ABL, FLT-3 [8]: negligible effects

Source: PMC4234445 (ACS Medicinal Chemistry Letters, 2014)
